Experimental data reported in patent US20130225629A1, “TARGETING PI3K/MTOR SIGNALLING AND NEUTROPHIL RECRUITMENT FOR TREATMENT OF ENTERITIS” (THE UNIVERSITY OF NORTH CAROLINA AT CHAPEL HILL, priority 2012, published 2013).

Legend:
NF-κB = assay: NF-κB-driven EGFP expression in colon (macroimaging, Western blot, confocal); format: in vivo; conditions: AS252424-treated vs vehicle-treated mice
Description: (§1) Whole tissues were lysed in Laemmli buffer and 20 μg of protein was separated by SDS-PAGE, transferred to nitrocellulose membranes and protein detected using enhanced chemiluminescence reaction (ECL) as described previously. (Lippert et al., 2009). Primary antibodies used were phospho-p70S6K (T389) and p70S6K (Cell Signaling, Danvers, Mass., United States of America), EGFP (Sigma, St. Louis, Mo., United States of America), LC3 I/II (MBL) and Actin.
II10^−/−; NF-κB^EGFP mice were sacrificed; the colon was dissected and immediately imaged using a charge-coupled device camera in a light-tight imaging box with a dual-filtered light source and emission filters specific for EGFP (LT-99D2 Illumatools; Lightools Research, Encinitas, Calif., United States of America). For microimaging, colonic segments were cut open and fixed in 4% paraformaldehyde overnight at 4° C., and then permeabilized in 2% triton overnight at 4° C. The tissues were then immersed in FocusClear (CelExplorer labs) and then stained with DAPI. […]
A segment of the distal colon was lysed in 300 μl Laemmli buffer, homogenized and heated at 95° C. for 5 min. […] Targeted protein was detected using enhanced chemiluminescence reaction (ECL) as described previously (Muhlbauer et al., 2008). […] The density of Western blot bands was quantified using ImageJ and data were normalized to total AKT control. […]

II-17a mRNA = assay: Real-time RT-PCR of colonic II-17a mRNA; format: in vivo, mice; conditions: AS252424 vs vehicle treated infected mice
Description: (§2) Total RNA from colonic tissue was extracted using TRIzol® kit (Invitrogen, Carlsbad, Calif., United States of America). Complementary DNA was prepared using M-MLV (Invitrogen). Messenger RNA levels of proinflammatory genes were determined using SYBR® Green PCR Master Mix (Applied Biosystems, Carlsbad, Calif., United States of America) on an ABI 7900HT Fast Real-Time PCR System and normalized to Gapdh. The polymerase chain reactions were performed according to the manufacturer's recommendation. The following gene primers were used: Gapdh_forward: 5′-[…]-3′ (SEQ ID NO: 2), Gapdh_reverse: 5′-[…]-3′ (SEQ ID NO: 3), II-1_forward: 5′-[…]-3′ (SEQ ID NO: 4), II-1_reverse: 5′-[…]-3′ (SEQ ID NO: 5), Cxcl2_forward: 5′-[…]-3′ (SEQ ID NO: 6), Cxcl2_reverse: 5′-[…]-3′ (SEQ ID NO: 7), II-17a_forward: 5′-[…]-3′ (SEQ ID NO: 8), II-17a_reverse: 5′-[…]-3′ (SEQ ID NO: 9), II12p40_forward: […] (SEQ ID NO: 10), II12p40_reverse: […] (SEQ ID NO: 11), Tnf forward: […] (SEQ ID NO: 12), Tnf reverse: […] (SEQ ID NO: 13).
(§3) Total RNA from intestinal tissues was extracted using TRIzol® kit (Invitrogen, Carlsbad, Calif., United States of America) following the manufacture's guide. cDNA was reverse-transcribed using M-MLV (Invitrogen). Proinflammatory 111β, Cxcl2, II17a and Tnfα mRNA expression levels were measured using SYBR® Green PCR Master mix (Applied Biosystems, Carlsbad, Calif., United States of America) on an ABI 7900HT Fast Real-Time PCR System and normalized to Gapdh. The PCR primers used were reported previously. (Sun et al., 2012). The PCR reactions were performed for 40 cycles according to the manufacturer's recommendation, and RNA fold changes were calculated using the ΔΔct method.

p70S6 kinase (T389) = assay: Western blot of colonic p70S6K phosphorylation in C. jejuni infected mice; format: in vivo; conditions: AS252424 10 mg/kg i.p. daily, 6 days
Description: as §1
A segment of the distal colon was lysed in 300 μl Laemmli buffer, homogenized and heated at 95° C. for 5 min. 20 μg of total protein were separated by SDS-PAGE and transferred to nitrocellulose membranes. Targeted protein was detected using enhanced chemiluminescence reaction (ECL) as described previously (Muhlbauer et al., 2008). Primary antibodies used were phosphor-AKT (S473), phosphor-p70S6K (T389), total AKT (all from Cell Signaling, Danvers, Mass., United States of America) and EGFP (Sigma, St. Louis, Mo., United States of America). The density of Western blot bands was quantified using ImageJ and data were normalized to total AKT control.

II1β mRNA = assay: Real-time RT-PCR of colonic II1β mRNA; format: in vivo, mice; conditions: AS252424 vs vehicle treated infected mice
Description: as §2, §3

C. jejuni = assay: FISH for C. jejuni in colon; format: in vivo; conditions: AS252424-treated mice
Description: Cy3-tagged 5′[…]3′ (SEQ ID NO: 1; Poppert et al., 2008) was used to probe the presence of C. jejuni. Deparaffinized, formalin-fixed 5 μm thick sections were incubated for 15 minutes in lysozyme (300,000 Units/ml lysozyme; Sigma-Aldrich, St. Louis, Mo., United States of America) buffer (25 mM Tris pH 7.5, 10 mM EDTA, 585 mM sucrose, and 0.3 mg/ml sodium taurocholate) at room temperature and hybridized overnight at 46° C. in hybridization chambers with the oligonucleotide probe (final concentration of 5 ng/μl in a solution of 30 percent formamide, 0.9 M sodium chloride, 20 mM Tris pH 7.5, and 0.01% sodium dodecyl sulfate). Tissue sections were washed for 20 minutes at 48° C. in washing buffer (0.9 M sodium chloride, 20 mM Tris pH 7.5) and once in distilled water for 10 seconds, dried at 46° C., mounted with DAPI mount media, and imaged using a Zeiss (Carl Zeiss, Thornwood, N.Y., United States of America) LSM710 Spectral Confocal Laser Scanning Microscope system with ZEN 2008 software. Acquired images were analyzed using BioimageXD. (Kankaanpaa et al., 2006). […]
Cy3-tagged 5′[…]3′ (SEQ ID NO: 1) was used to probe the presence of C. jejuni in the intestinal tissue sections as previously described (Sun et al., 2012). […] Acquired images were analyzed using BioimageXD (Kankaanpaa et al., 2006).

## O=C1NC(=O)/C(=C/c2ccc(-c3ccc(F)cc3O)o2)S1 [AS252424]
NF-κB
  induction of EGFP expression (NF-κB activity) in the colon: reduced
II-17a mRNA
  block of C. jejuni-induced II17a mRNA accumulation: 72%
p70S6 kinase (T389)
  attenuation of p70S6K phosphorylation (T389) in colonic extracts: 34%
II1β mRNA
  block of C. jejuni-induced I11β mRNA accumulation: 77%
C. jejuni
  C. jejuni in colon (FISH, confocal): barely detectable
